Measured values published in patent US7332475B2 (priority 2003, dated 2008).

Tests used:
[1] = tested on: bovine coronavirus (BCV) Kakegawa strain and Mebus strain; conditions: 1, 5, 10, 20 or 30 mmol/l reduced glutathione; MDBK cells; supernatant at 24, 48, 72 and 96 hours; FIGS. 1 and 2
Method: Madin Darby Bovin Kidney (MDBK) cells (ATCC CCL-22) was incubated with a 48-well plate such that the cells were 90% confluent, and then washed twice with a phosphate buffered saline (PBS).
Each of bovine coronavirus (BCV) Kakegawa strain (procured from Nippon Zenyaku Kogyo Co., Ltd.) [2.56 to 256 hemagglutinin (HA) titer/25 μl] and Mebus strain (ATCC VR-874) (0.064 and 0.64 HA titers/25 μl) at various concentrations, these strains being diluted with fetal bovine serum (FBS)-free Minimum Essential Medium (MEM) [Science, 122, 501 (1952)], was inoculated in an amount of 200 μl/well, and incubated at 37° C. for 90 minutes while moving a plate at intervals of 15 minutes. After the culture solution was washed three times with PBS, 500 μl/well of 5% FBS-containing MEM containing 1, 5, 10, 20 or 30 mmol/l of reduced glutathione was added thereto, and the mixture was further incubated at 37° C. During the incubation, 100 μl of the supernatant was recovered in 24, 48, 72 and 96 hours to measure a hemagglutinin (HA) titer.
The HA titer was measured by adding 25 μl of PBS containing 0.03% BSA to each well, adding 25 μl of the BCV culture supernatant thereto by multiple dilution, adding 0.8% mouse immobilization red cells thereto and measuring an agglutination reaction of red cells after 3 hours. […]

BVDV(ATCC VR524) = test: Contact of BVDV with catechin (EGCg) before inoculation of MDBK cells, detection of BVDV-derived DNA by RT-PCR; type: cell-based, bovine viral diarrhea virus; conditions: 1 mg/ml catechin (EGCg), incubation 6 days
Method: The cells were washed three times with PBS, and 5% FBS-containing MEM was added thereto. Incubation was further conducted at 37° C. for 6 days.
After completion of the incubation, a DNA derived from BVDV in the MDBK cells was detected by RT-PCR to confirm whether or not the cells were infected with the virus.

BCV Kakegawa strain = test: Contact of BCV with catechin (EGCg) before inoculation of MDBK cells, TCID50 by cell denaturation effect; type: cell-based, bovine coronavirus; conditions: 1 mg/ml EGCg
Method: BCV Kakegawa strain with a 50% tissue culture infectious dose (TCID50) of 1.8×10^8/ml and 1 mg/ml of catechin (EGCg: procured from Pharma Foods International Co., Ltd.) were contacted at 25° C. or 37° C. for 30, 60 or 90 minutes respectively, and a 10-fold dilution series was then produced with MEM.
After the cells were washed three times with PBS, 5% FBS-containing MEM was added in an amount of 500 μl/well, and incubation was conducted for 72 hours. Subsequently, the cells infected with the virus were identified with a cell denaturation effect to measure TCID50.

| Structure (SMILES) | growth of coronavirus (hemagglutinin (HA) titer of culture supernatant) [1] | BVDV-derived DNA in MDBK cells by RT-PCR (BVDV(ATCC VR524); contact at 37° C. for 30, 60 or 90 minutes) | BVDV-derived DNA in MDBK cells by RT-PCR (BVDV(ATCC VR524); contact at 37° C. for 90 minutes) | 10^(n) TCID50/ml, EGCg-treated virus (BCV Kakegawa strain; contact 30 min, temperature cell empty (row between 25° C. and 37° C.), control 8.25) | 10^(n) TCID50/ml, EGCg-treated virus (BCV Kakegawa strain; contact at 25° C. for 30 min, control 7.25) | 10^(n) TCID50/ml, EGCg-treated virus (BCV Kakegawa strain; contact at 37° C. for 60 min, control 7.75) | 10^(n) TCID50/ml, EGCg-treated virus (BCV Kakegawa strain; contact at 37° C. for 90 min, control 6.50) |
| --- | --- | --- | --- | --- | --- | --- | --- |
| N[C@@H](CCC(=O)N[C@@H](CS)C(=O)NCC(=O)O)C(=O)O [reduced glutathione, γ-L-Glu-L-Cys-Gly] | effect of inhibiting growth of coronavirus |  |  |  |  |  |  |
| O=C(O[C@@H]1Cc2c(O)cc(O)cc2O[C@@H]1c1cc(O)c(O)c(O)c1)c1cc(O)c(O)c(O)c1 [EGCg, epigallocatechin gallate] |  | became undetected depending on the catechin treatment time | not detected at all | 4.25 10^(n) TCID50/ml | 5.75 10^(n) TCID50/ml | <2.75 10^(n) TCID50/ml | <2.00 10^(n) TCID50/ml |
